Where “and” joins values, the source holds several entries; their conditions need not be identical. Equal values may be shown once.
Details: 101.33 kPa, Liquid, Pulse-echo method

[Ge] [germanium]
Details | speed of sound
1216 K | 2690.9 m/s and 2689.9 m/s
1233 K | 2690.8 m/s and 2691.1 m/s
1252 K | 2689.5 m/s and 2696.2 m/s
1270 K | 2692 m/s and 2695 m/s
1289 K | 2690.8 m/s and 2700.4 m/s
1307 K | 2690.6 m/s and 2695 m/s
1352 K | 2673.6 m/s and 2678.4 m/s
1398 K | 2662.8 m/s and 2666.3 m/s
1443 K | 2652.5 m/s and 2654.4 m/s

[Sn] [tin]
Details | speed of sound [m/s]
608 K | 2470
804 K | 2408
814 K | 2416
919 K | 2379
1012 K | 2366
1025 K | 2332
1218 K | 2306
1453 K | 2234
1463 K | 2242

[Si] [silicon]
Details | speed of sound [m/s]
1723 K | 3916.1
1748 K | 3929
1755 K | 3945.9
1789 K | 3973.3
1795 K | 3969
1823 K | 3976.3
1852 K | 4003
1889 K | 4020

[Pb] [lead]
Details | speed of sound [m/s]
610 K | 1834
626 K | 1810.5
678 K | 1790.3
703 K | 1784
787 K | 1769.8
814 K | 1749
897 K | 1729.8
1078 K | 1688

Source: the NIST ThermoML archive (doi:10.1007/s10765-007-0151-9)
